Laboratory results from US9790221B2, “Heteroaryl compounds as IRAK inhibitors and uses thereof” (Merck Patent GmbH, priority 2014, dated 2017).
Structures can show the parent of a compound that is named as a salt.

Key:
[1] = target: IRAK1 (His-TEV-IRAK1 (194-712)) (Homo sapiens (Human), UniProt P51617); assay: IRAK1 enzymatic assay; assay type: biochemical
In short: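 Compounds ([…] down to 1 nM) were incubated 3 h at 30° C with His-TEV-IRAK1 (194-712, 15 ng/well) and 1 μM [33P]-labelled ATP in 50 mM Hepes pH 7.0, 10 mM MgCl2. After EDTA stop and washing, the retained autophosphorylation signal was measured by scintillation in streptavidin-coated plates.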

[2] = target: IRAK4 (Homo sapiens (Human), UniProt Q9NWZ3); assay: IRAK4 enzymatic assay; assay type: biochemical
Chain of IRAK4 (Q9NWZ3 whole entry): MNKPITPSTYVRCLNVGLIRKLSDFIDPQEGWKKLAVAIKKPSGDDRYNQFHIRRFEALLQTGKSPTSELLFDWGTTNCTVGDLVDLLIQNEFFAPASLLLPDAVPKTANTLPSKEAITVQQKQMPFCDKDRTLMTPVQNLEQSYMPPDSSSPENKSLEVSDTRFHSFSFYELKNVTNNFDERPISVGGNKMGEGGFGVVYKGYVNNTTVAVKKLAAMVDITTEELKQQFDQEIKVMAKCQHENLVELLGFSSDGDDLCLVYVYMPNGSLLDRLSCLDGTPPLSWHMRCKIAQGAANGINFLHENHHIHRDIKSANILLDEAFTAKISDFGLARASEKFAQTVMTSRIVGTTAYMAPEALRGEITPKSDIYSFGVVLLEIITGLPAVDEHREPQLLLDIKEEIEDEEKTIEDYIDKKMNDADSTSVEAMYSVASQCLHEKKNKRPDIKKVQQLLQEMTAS
In short: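 Radiometric streptavidin FlashPlate read: 3 h, 30° C incubation of His-TEV-IRAK4 (20 ng/well), STK1-biotin substrate (300 nM) and ATP (2 μM, [^33P]-labelled) in Hepes pH 7.0, MgCl2 10 mM, MnCl2 5 mM. Compounds from 20 µM down to 1 nM, 2% DMSO controls; reaction quenched with EDTA.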

[3] = test system: TLR7 induced IL-6 secretion in human mononuclear cells (PBMC's); assay: TLR7 induced IL-6 in human PBMC's; assay type: cell-based; conditions: Homo sapiens, PBMC, read-out: TLR7 induced IL-6 secretion in hPBMC's (IC50)
Procedure: TLR7 Induced IL-6 in Human PBMC's
Human PBMC assay was used as one of the functional assay a to monitor the activity of IRAK1 and IRAK4 small molecule inhibitors on TLR7 induced IL-6 secretion in human mononuclear cells (PBMC's). Human PBMCs were prepared from buffy coats (whole blood enriched with leukocytes and platelets) obtained from healthy volunteers used either fresh or frozen are plated in assay media (RPMI+2% P/S/L-glu+10% HI-FBS) and pre-treated with compounds in DMSO/media (range of concentrations from 25 uM to 0.4 nM) or controls (0.25% DMSO) for 30 minutes at 37° C. in assay media. Following pre-treatment with IRAK1 and IRAK4 inhibitors, PBMC's were stimulated with TLR7 specific ligand (2 uM) overnight (16-18 hrs) at 37° C. After incubation supernatant was transferred to 384 well PE AlphaPlate-384 (6005350) and IL-6 is quantified using Perkin Elmer IL-6 Alpha LISA kit (AL223C). Plates were read on an Envision® plate reader with Alpha Technology®.

Chain of IRAK1 (His-TEV-IRAK1 (194-712)) (P51617 194-712): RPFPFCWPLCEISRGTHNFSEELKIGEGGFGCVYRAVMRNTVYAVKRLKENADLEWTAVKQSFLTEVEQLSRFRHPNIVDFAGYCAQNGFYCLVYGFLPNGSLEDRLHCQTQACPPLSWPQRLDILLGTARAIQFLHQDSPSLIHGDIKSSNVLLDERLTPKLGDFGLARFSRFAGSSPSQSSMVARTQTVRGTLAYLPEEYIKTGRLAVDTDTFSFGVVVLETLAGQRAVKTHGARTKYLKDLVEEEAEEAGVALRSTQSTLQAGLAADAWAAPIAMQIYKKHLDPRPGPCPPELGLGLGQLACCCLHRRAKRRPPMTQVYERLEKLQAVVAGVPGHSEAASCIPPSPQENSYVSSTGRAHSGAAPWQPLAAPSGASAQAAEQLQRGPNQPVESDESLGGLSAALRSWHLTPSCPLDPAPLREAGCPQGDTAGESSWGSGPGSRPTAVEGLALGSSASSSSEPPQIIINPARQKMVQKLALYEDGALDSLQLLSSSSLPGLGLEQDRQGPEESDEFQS

| SMILES | IC50 [1] | IC50 [2] | IC50 [3] |
| --- | --- | --- | --- |
| Cn1cc(-c2cccc(-c3ncc(-c4ccn(C)n4)c(N[C@@H]4CC[C@H](N)C4)n3)c2)cn1 (racemic) [Example 107] | 100 to 1000 nM | 100 to 1000 nM | 100 to 1000 nM |
| Cn1cc(-c2cccc(-c3ncc(-c4cnn(C)c4)c(N[C@@H]4CC[C@H](N)C4)n3)c2)cn1 (racemic) [Example 108] | 100 to 1000 nM | < 100 nM | 100 to 1000 nM |
| Cn1cc(-c2cccc(-c3ncc(-c4cnn(C)c4)c(N[C@@H]4CNC[C@H]4O)n3)c2)cn1 (racemic) [Example 113] | 100 to 1000 nM | < 100 nM | 1000 to 5000 nM |
| Cn1cc(-c2cccc(-c3ncc(-c4ccn(C)n4)c(N[C@@H]4CCC[C@@H](O)[C@H]4O)n3)c2)cn1 (racemic) [Example 131] | 1000 to 5000 nM | < 100 nM | 1000 to 5000 nM |
| Cn1cc(-c2cccc(-c3ncc(-c4cnn(C)c4)c(N[C@@H]4CCC[C@@H](O)[C@H]4O)n3)c2)cn1 (racemic) [Example 133, (1R,2S,3R)-3-{5-(1-Methyl-1H-pyrazol-4-yl)-2-[3-(1-methyl-1H-pyrazol-4-yl)-phenyl]-pyrimidin-4-ylamino}-cyclohexane-1,2-diol] | 100 to 1000 nM | < 100 nM | 100 to 1000 nM |
| Cn1cc(-c2cccc(-c3ncc(-c4cnn(C)c4)c(O[C@@H]4CCC[C@@H](N)[C@@H]4O)n3)c2)cn1 (racemic) [Example 134, (1S,2R,6R)-2-Amino-6-{5-(1-methyl-1H-pyrazol-4-yl)-2-[3-(1-methyl-1H-pyrazol-4-yl)-phenyl]-pyrimidin-4-yloxy}-cyclohexanol] | < 100 nM | < 100 nM | < 100 nM |
| Cn1cc(-c2cccc(-c3ncc(-c4cnn(C)c4)c(N[C@H]4CCC[C@@H](O)C4)n3)c2)cn1 (racemic) [Example 161] | < 100 nM | < 100 nM | 100 to 1000 nM |
| Cn1cc(-c2cccc(-c3ncc(-c4cnn(C)c4)c(N[C@H]4CCC[C@H](O)C4)n3)c2)cn1 (racemic) [Example 162] | 100 to 1000 nM | < 100 nM | 100 to 1000 nM |
| Cn1cc(-c2cccc(-c3ncc(-c4cnn(C)c4)c(NC4CCC(O)C4)n3)c2)cn1 (racemic) [Example 167] | 1000 to 5000 nM | < 100 nM | 1000 to 5000 nM |
| CN[C@H]1CCC[C@H](Nc2nc(-c3cccc(-c4cnn(C)c4)c3)ncc2-c2cnn(C)c2)[C@@H]1O (racemic) [Example 281, (1R,2S,6S)-2-Methylamino-6-{5-(1-methyl-1-pyrazol-4-yl)-2-[3-(1-methyl-1H-pyrazol-4-yl)-phenyl]-pyrimidin-4-ylamino}-cyclohexanol] | > 5000 nM | < 100 nM | 1000 to 5000 nM |
| Cn1cc(-c2cccc(-c3ncc(-c4cnn(C)c4)c(N[C@H]4CCC[C@H](F)[C@H]4O)n3)c2)cn1 (single isomer, unassigned) [Example 285] | 100 to 1000 nM | < 100 nM | 100 to 1000 nM |
| Cn1cc(-c2cccc(-c3ncc(-c4cnn(C)c4)c(N[C@@H]4CCC[C@@H](F)[C@@H]4O)n3)c2)cn1 (single isomer, unassigned) [Example 286] | 100 to 1000 nM | < 100 nM | 100 to 1000 nM |
| Cn1cc(-c2cccc(-c3ncc(-c4cnn(C)c4)c(N[C@H]4CCCC[C@@H](O)[C@H]4O)n3)c2)cn1 (stereo in doubt) [Example 248] | 100 to 1000 nM | < 100 nM | 100 to 1000 nM |
| Cn1cc(-c2cccc(-c3ccc(-c4cnn(C5CCNCC5)c4)cn3)c2)cn1 [Example 1, 2-[3-(1-Methyl-1H-pyrazol-4-yl)-phenyl]-5-(1-piperidin-4-yl-1H-pyrazol-4-yl)-pyridine Hydrochloride] | > 5000 nM | 100 to 1000 nM | 1000 to 5000 nM |
| Cn1cc(-c2cccc(-c3ncc(-c4cnn(C)c4)c(NCC4CCNCC4)n3)c2)cn1 [Example 7, {5-(1-Methyl-1H-pyrazol-4-yl)-2-[3-(1-methyl-1H-pyrazol-4-yl)-phenyl]-pyrimidin-4-yl}-piperidin-4-ylmethyl-amine] | 100 to 1000 nM | 100 to 1000 nM | 1000 to 5000 nM |
| Cn1cc(-c2cccc(-c3ncc(-c4cnn(C)c4)c(OCC4(C)COC4)n3)c2)cn1 [Example 9, 4-(3-Methyl-oxetan-3-ylmethoxy)-5-(1-methyl-1H-pyrazol-4-yl)-2-[3-(1-methyl-1H-pyrazol-4-yl)-phenyl]-pyrimidine] | 1000 to 5000 nM | 100 to 1000 nM | 1000 to 5000 nM |
| Cn1cc(-c2cccc(-c3ncc(-c4ccn(C)n4)c(NCC4CCCNC4)n3)c2)cn1 (stereo not drawn) [Example 10, {5-(1-Methyl-1H-pyrazol-3-yl)-2-[3-(1-methyl-1H-pyrazol-4-yl)-phenyl]-pyrimidin-4-yl}-piperidin-3-ylmethyl-amine] | 100 to 1000 nM | 100 to 1000 nM | 1000 to 5000 nM |
| Cn1cc(-c2cccc(-c3ncc(-c4cnn(C)c4)c(OCC4COC4)n3)c2)cn1 [Example 11, 5-(1-Methyl-1H-pyrazol-4-yl)-2-[3-(1-methyl-1H-pyrazol-4-yl)-phenyl]-4-(oxetan-3-ylmethoxy)-pyrimidine] | > 5000 nM | 100 to 1000 nM | 1000 to 5000 nM |
| Cn1cc(-c2cccc(-c3ncc(-c4cnn(C)c4)c(NCC4CCOCC4)n3)c2)cn1 [Example 13, {5-(1-Methyl-1H-pyrazol-4-yl)-2-[3-(1-methyl-1H-pyrazol-4-yl)-phenyl]-pyrimidin-4-yl}-(tetrahydro-pyran-4-ylmethyl)-amine] | 100 to 1000 nM | 100 to 1000 nM | 1000 to 5000 nM |
| Cc1nnc(-c2cnc(-c3cccc(-c4cnn(C)c4)c3)nc2NC(C)C)s1 [Example 15, Isopropyl-[2-[3-(1-methyl-1H-pyrazol-4-yl)-phenyl]-5-(5-methyl-[1,3,4]thiadiazol-2-yl)-pyrimidin-4-yl]-amine] | 100 to 1000 nM | < 100 nM | 100 to 1000 nM |
| CC(C)Nc1nc(-c2cccc(-c3cnn(C)c3)c2)ncc1-c1nnc(C(=O)N2CC[C@@H](O)C2)s1 [Example 16, ((R)-3-Hydroxy-pyrrolidin-1-yl)-(5-{4-isopropylamino-2-[3-(1-methyl-1H-pyrazol-4-yl)-phenyl]-pyrimidin-5-yl}-[1,3,4]thiadiazol-2-yl)-methanone] | 100 to 1000 nM | < 100 nM | 100 to 1000 nM |
| Cc1nnc(-c2cnc(-c3cccc(-c4cnn(C)c4)c3)nc2NC2CCCNC2)s1 (stereo not drawn) [Example 17, [2-[3-(1-Methyl-1H-pyrazol-4-yl)-phenyl]-5-(5-methyl-[1,3,4]thiadiazol-2-yl)-pyrimidin-4-yl]-piperidin-3-yl-amine Hydrochloride] | > 5000 nM | < 100 nM | 100 to 1000 nM |
| COC(=O)c1nnc(-c2cnc(-c3cccc(-c4cnn(C)c4)c3)nc2NC2CCCNC2)s1 (stereo not drawn) [Example 18, 5-[2-[3-(1-Methyl-1H-pyrazol-4-yl)-phenyl]-4-(piperidin-3-ylamino)-pyrimidin-5-yl]-[1,3,4]thiadiazole-2-carboxylic Acid Methyl Ester Hydrochloride] | > 5000 nM | < 100 nM | 100 to 1000 nM |
| COC(=O)c1nnc(-c2cnc(-c3cccc(-c4cnn(C)c4)c3)nc2NCC2CNC2)s1 [Example 19, 5-{4-[(Azetidin-3-ylmethyl)-amino]-2-[3-(1-methyl-1H-pyrazol-4-yl)-phenyl]-pyrimidin-5-yl}-[1,3,4]thiadiazole-2-carboxylic Acid Methyl Ester Trifluoroacetate] | > 5000 nM | 100 to 1000 nM | 1000 to 5000 nM |
| Cn1cc(-c2cccc(-c3ncc(-c4nnc(C(=O)N5CC[C@@H](O)C5)s4)c(NC4CCCNC4)n3)c2)cn1 (stereo partly drawn) [Example 20, ((R)-3-Hydroxy-pyrrolidin-1-yl)-{5-[2-[3-(1-methyl-1H-pyrazol-4-yl)-phenyl]-4-(piperidin-3-ylamino)-pyrimidin-5-yl]-[1,3,4]thiadiazol-2-yl}-methanone Hydrochloride] | 100 to 1000 nM | 1000 to 5000 nM | 100 to 1000 nM |
| CC(C)Nc1cc(-c2cccc(-c3cnn(C)c3)c2)ncc1-c1nnc(C(=O)N2CC[C@@H](O)C2)s1 [Example 21, ((R)-3-Hydroxy-pyrrolidin-1-yl)-(5-{4-isopropylamino-6-[3-(1-methyl-1H-pyrazol-4-yl)-phenyl]-pyridin-3-yl}-[1,3,4]thiadiazol-2-yl)-methanone] | 1000 to 5000 nM | < 100 nM | 1000 to 5000 nM |
| CC(C)Nc1cc(-c2cccc(-c3cnn(C)c3)n2)ncc1-c1nnc(C(=O)N2CC[C@@H](O)C2)s1 [Example 22, ((R)-3-Hydroxy-pyrrolidin-1-yl)-{5-[4-isopropylamino-6′-(1-methyl-1H-pyrazol-4-yl)-[2,2′]bipyridinyl-5-yl]-[1,3,4]thiadiazol-2-yl}-methanone] | 100 to 1000 nM | < 100 nM | 100 to 1000 nM |
